Reference: PMC5832847, “Rapid measurement of inhibitor binding kinetics by isothermal titration calorimetry” (Nature Communications, 2018)

Target: T1, prolyl oligopeptidase (POP) (Homo sapiens, UniProt P48147)
T1 construct: made in house; host or cells: E. coli BL21
T1 sequence (P48147 1-710): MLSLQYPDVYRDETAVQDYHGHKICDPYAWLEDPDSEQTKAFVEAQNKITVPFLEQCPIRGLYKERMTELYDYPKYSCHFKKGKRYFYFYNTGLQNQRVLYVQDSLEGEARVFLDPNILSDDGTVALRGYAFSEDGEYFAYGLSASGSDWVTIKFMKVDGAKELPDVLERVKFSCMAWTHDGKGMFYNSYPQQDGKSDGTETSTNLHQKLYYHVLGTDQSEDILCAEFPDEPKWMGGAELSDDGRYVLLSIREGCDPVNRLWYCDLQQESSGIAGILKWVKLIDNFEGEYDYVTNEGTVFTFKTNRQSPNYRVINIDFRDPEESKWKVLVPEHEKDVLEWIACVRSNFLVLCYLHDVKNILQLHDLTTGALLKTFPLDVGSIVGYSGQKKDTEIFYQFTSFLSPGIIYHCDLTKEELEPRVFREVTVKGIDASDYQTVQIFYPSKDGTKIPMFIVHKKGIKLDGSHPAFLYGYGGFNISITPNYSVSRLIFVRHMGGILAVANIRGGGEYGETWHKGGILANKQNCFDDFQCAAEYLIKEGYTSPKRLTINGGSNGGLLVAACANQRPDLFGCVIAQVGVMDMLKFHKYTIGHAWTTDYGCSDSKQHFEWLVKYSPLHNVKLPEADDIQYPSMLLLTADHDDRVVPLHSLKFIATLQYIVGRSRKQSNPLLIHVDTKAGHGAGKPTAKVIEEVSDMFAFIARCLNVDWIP
Assay: ITC enthalpy of catalysis and Michaelis-Menten parameters with TRH
Type: biochemical
Details: 30 °C
Procedure: Prolyl oligopeptidase enthalpy of catalysis and Michaelis-Menten parameters.
Supplementary Figure 3. Prolyl oligopeptidase and TRH enthalpy of catalysis. 3 injections (15 µL over 30 s) of Thyrotropin-releasing Hormone (TRH) (5.5 mM in syringe) into cell containing POP (250 nM in Cell) at 30 °C in buffer described above. Experiment was carried out using a Malvern VP -ITC.
Supplementary Figure 4. Michaelis-Menten plot for prolyl oligopeptidase with TRH. 5 injections (8 µL, 6 […]
Thyrotropin -releasing Hormone (TRH) (27.6 mM in syringe) into cell containing POP (2.5 nM in Cell) at 30 °C in buffer described above. The enzyme velocity at several concentrations of substrate (black ope n circles) was extracted using the methods described in 13 and fit to Michaelis-Menten kinetics (blue curve).
Experiment was carried out in Malvern VP -ITC. […]
Supplementary Table 1. Summary of prolyl oligopeptidase 13 enzyme parameters with TRH. Determined by ITC using techniques presented by Gomez et al.
Enthalpy of binding in kinetics of inhibition and initiation experiments . In the kinetics of inhibition and initiation experiments performed here, the instrument measures both the heat generated by enzymatic catalysis and the heat produced due direct interaction of the inhibitor with the enzyme. In order to estimate the relative magnitudes of these two effects, the enthalpy of binding was directly measured […]
1000-fold greater, 5 µM) than those used in kinetics of inhibition and initiation experiments (Supplementary Fig. 5 ). Binding data were then modelled at the concentrations of enzyme and inhibitor and injection size and spacing used for the kinetic experiment for compound 5, with representative instrumental noise estimated from the basel ines, ΔHbind taken from Supplementary Table 2 and Ki taken as a previously reported value (0.5 nM) 14 (Supplementary Fig. 6).
Supplementary Figure 5. Compound 5 prolyl o ligopeptidase binding experiments. Compound 5 (90 µM) was titrated into 5 µM POP in cell using a Malvern ITC-200 calorimeter. […]

Substance: thyrotropin-releasing hormone [TRH]
- Km: 975 µM
- kcat: 42.19 s⁻¹
- ΔHcat: -28.1 ± 0.25 kJ/mol
